Tests used:
MPTP-treated mice = experiment: inked paw stride length in the MPTP mouse model of Parkinson's disease, confirmatory study (Example 6); format: in vivo; set-up: key to Letter Designation (statistical group of stride length): A: Groups that share a letter are not statistically different; groups that do not share a letter are significantly different from each other.; B: Groups that share a letter are not statistically different; groups that do not share a letter are significantly different from each other.; C: Groups that share a letter are not statistically different; groups that do not share a letter are significantly different from each other; settings: for Letter Designation (statistical group of stride length): No treatment = A, MPTP = B; for Stride length (cm) MEAN ± SEM: MPTP-lesioned mice, 20 minutes after dosing
Experimental: Adult male C57BL/6J; retired breeders, aged between 7-9 months (Jackson Laboratory, Bar Harbor, Me., USA), singly housed.
MPTP Mice received 2 subcutaneous injections of methylphenyltetrahydropyridine (“MPTP”) at a dose of 15 mg/kg (free base) with a 10-12 hour interval between injections. Control mice (sham lesion groups) were administered saline instead of MPTP.
Seven days after MPTP/saline administration, OM69 was administered to mice. For each dose, a 100× stock of OM69 was prepared in 100% DMSO and subsequently diluted 100× into phosphate buffered saline (PBS). Then 100 μL of this 1× solution was administered intraperitoneally (IP).
Prior to injection with MPTP or saline, animals were pre-trained to walk across a clean sheet of paper into their home cage without stopping. For assessment of stride length, animals had their forepaws placed in black ink and the length of forepaw steps during normal walking (in a straight line only) was measured. The animals were immediately put back into their home cage upon completion of the task. Stride length was determined by measuring the distance between each step on the same side of the body, measuring from the middle toe of the first step to the heel of the second step. An average of at least four clear steps was calculated.
Data was analyzed using Prism 4.0 software. Groups were analyzed by one way ANOVA and Student-Newman-Keuls post hoc test when appropriate. Significance was considered reached at p<0.05. Treatment groups in the stride length graph that are statistically different are indicated by the letters in Table 6.
Retired breeder male mice (28 animals total) were treated with 2×15 mg/kg MPTP (12 saline; […]) to induce a Parkinsonian state (neurochemical loss of dopamine with corresponding behavioral deficits). On day 1 baseline stride length was measured and then all mice were treated with MPTP or saline. On day 8 stride length was measured again, and then the MPTP-treated animals were divided randomly into two groups of fourteen. As described in Example 5, dosing with the successive treatments indicated in FIG. 12 occurred on consecutive days, and in each case stride length was measured 20 minutes after dosing.
On Day 9, Group 1 animals were treated with OM69 (0.01 mg/kg) and Group 2 were treated with L-dopa (1 mg/kg). On Day 10, Group 1 animals were treated with OM69 (0.03 mg/kg) and Group 2 were treated with L-dopa (5 mg/kg). On Day 11, Group 1 animals were treated with OM69 (0.05 mg/kg) and Group 2 were treated with OM69 (0.1 mg/kg). On Day 12, Group 1 was treated with OM69 (0.07 mg/kg).
Next, for combination studies, the two groups were combined. On Day 14, all the animals were treated with both L-dopa (1 mg/kg) and OM69 (0.01 mg/kg). On Day 15, all the animals were treated with L-dopa (1 mg/kg) in combination with a higher dose of OM69 (0.03 mg/kg).

Dopamine D4.2 receptor = Dopamine D4.2 receptor (Homo sapiens (Human), UniProt P21917, DEL265-296); experiment: Dopamine D4.2 radioligand binding assay; settings: 10.0 μM
Dopamine D4.2 receptor, sequence (P21917 other isoform, or with tags, fused parts or gaps del 265-296): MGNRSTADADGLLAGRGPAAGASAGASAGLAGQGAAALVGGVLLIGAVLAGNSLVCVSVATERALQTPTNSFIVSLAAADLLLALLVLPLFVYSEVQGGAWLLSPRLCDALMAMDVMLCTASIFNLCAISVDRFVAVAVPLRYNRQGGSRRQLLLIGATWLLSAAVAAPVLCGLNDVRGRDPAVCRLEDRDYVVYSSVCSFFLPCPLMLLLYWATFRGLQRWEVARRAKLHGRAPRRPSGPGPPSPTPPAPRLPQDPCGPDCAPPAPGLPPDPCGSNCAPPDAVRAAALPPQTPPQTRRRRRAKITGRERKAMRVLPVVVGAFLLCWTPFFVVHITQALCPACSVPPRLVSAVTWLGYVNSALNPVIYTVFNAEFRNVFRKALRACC

Dopamine D3 receptor = Dopamine D3 receptor (Homo sapiens (Human), UniProt P35462); experiment: Dopamine D3 radioligand binding assay; settings: 10.0 μM
Dopamine D3 receptor, sequence (P35462 whole entry): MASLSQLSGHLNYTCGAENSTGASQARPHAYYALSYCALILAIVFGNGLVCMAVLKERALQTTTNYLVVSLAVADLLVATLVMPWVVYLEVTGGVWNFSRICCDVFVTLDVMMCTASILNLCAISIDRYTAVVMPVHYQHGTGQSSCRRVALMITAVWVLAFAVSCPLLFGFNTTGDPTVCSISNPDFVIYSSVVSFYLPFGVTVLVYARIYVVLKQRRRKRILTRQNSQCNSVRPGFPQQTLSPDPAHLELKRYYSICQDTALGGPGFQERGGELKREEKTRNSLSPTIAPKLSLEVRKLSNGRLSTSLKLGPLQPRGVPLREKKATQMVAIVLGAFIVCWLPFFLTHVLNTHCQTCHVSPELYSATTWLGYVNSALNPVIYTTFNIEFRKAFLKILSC

gabapentin receptor = gabapentin receptor (Rattus norvegicus, UniProt P54290); experiment: Gabapentin radioligand binding assay; settings: 10.0 μM
gabapentin receptor, sequence (P54290 25-944 limits assumed): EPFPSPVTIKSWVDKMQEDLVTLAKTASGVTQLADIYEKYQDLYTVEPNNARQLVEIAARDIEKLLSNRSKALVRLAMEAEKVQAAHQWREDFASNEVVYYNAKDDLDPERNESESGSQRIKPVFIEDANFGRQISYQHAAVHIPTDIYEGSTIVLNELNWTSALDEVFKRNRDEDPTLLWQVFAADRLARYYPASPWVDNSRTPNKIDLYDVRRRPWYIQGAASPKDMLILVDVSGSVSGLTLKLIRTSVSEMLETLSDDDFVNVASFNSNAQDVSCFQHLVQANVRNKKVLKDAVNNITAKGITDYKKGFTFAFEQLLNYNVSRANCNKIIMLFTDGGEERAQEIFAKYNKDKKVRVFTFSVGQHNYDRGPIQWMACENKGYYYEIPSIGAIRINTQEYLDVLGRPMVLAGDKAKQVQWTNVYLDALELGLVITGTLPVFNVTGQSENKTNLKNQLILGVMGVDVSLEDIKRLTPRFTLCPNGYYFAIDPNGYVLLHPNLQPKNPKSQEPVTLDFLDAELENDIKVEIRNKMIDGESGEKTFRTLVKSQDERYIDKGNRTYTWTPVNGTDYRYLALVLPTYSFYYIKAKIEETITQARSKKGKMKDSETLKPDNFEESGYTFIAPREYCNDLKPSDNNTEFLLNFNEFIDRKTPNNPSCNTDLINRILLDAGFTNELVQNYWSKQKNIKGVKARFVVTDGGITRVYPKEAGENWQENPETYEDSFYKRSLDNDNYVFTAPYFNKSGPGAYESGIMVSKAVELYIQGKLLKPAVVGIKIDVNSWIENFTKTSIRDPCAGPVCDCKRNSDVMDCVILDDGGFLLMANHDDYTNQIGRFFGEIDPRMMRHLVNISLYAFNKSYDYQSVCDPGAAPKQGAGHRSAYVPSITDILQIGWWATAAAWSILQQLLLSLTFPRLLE
gabapentin receptor, sequence (P54290 945-1091 limits assumed): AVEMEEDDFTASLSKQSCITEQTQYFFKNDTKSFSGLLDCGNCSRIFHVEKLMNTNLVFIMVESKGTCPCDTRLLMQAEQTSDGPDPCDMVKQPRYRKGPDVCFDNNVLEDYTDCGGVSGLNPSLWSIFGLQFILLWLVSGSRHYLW

Dopamine D1 receptor = Dopamine D1 receptor (Homo sapiens (Human), UniProt P21728); experiment: Dopamine D1 radioligand binding assay; settings: 10.0 μM
Dopamine D1 receptor, sequence (P21728 whole entry): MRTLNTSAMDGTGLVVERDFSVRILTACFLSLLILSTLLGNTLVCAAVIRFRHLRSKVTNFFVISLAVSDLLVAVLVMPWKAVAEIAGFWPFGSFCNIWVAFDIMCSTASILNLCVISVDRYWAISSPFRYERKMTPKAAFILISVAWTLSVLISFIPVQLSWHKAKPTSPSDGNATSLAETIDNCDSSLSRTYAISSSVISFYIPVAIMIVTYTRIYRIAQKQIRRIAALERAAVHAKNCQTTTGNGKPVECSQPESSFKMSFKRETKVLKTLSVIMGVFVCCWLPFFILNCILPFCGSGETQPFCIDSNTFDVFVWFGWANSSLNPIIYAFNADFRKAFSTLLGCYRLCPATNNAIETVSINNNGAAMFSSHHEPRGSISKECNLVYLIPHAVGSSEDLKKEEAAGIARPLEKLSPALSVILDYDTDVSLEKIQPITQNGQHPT

PDE1B = PDE1B (Homo sapiens (Human), UniProt Q01064); experiment: PDE selectivity SPA assay, PDE1B; format: biochemical; settings: IC50 against PDE1B divided by IC50 against PDE7A
PDE1B, sequence (Q01064 whole entry): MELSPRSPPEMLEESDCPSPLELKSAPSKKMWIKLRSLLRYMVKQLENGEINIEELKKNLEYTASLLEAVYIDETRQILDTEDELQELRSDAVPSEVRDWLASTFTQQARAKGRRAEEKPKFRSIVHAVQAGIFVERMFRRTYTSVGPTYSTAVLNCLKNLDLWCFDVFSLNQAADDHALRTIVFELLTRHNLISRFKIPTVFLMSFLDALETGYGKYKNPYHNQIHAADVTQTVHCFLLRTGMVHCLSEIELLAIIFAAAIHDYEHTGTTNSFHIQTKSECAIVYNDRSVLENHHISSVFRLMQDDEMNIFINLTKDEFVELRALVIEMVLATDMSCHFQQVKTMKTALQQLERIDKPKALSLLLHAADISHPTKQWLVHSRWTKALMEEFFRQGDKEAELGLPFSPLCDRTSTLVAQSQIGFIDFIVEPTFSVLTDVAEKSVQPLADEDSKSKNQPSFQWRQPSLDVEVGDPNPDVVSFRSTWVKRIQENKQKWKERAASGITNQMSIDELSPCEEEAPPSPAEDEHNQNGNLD
Experimental: Phosphodiesterase activity was measured by a scintillation proximity assay (SPA, GE Healthcare: Product Code TRKQ7100) with [^3H]-cAMP as the substrate for PDEs 3A, 4A, 8A, or with [^3H]-cGMP as the substrate for PDEs 1B, 2A, 5A, 9A, 10A and 11A. Purified human PDE1B, PDE2A, PDE3A, PDE4A, PDE5A, PDE8A, PDE9A and PDE11A4 were obtained from BPS Bioscience, San Diego, Calif. Purified murine PDE10A was also obtained from BPS Biosciences. […] Therefore, the results obtained using murine PDE10A are believed to be representative of human PDE10.
The purified PDE enzymes were each diluted and stored in a solution containing 25 mM Tris-Cl (pH 8.0), 100 mM NaCl, 0.05% Tween 20, 50% glycerol, and 3 mM DTT. PDE assays were carried out in the following assay cocktail (final concentrations): 50 mM Tris-Cl (pH 8.0), 8.3 mM MgCl2, 1.7 mM EGTA, 0.5 mg/ml BSA, 2.5% DMSO and between 0.2 ng and 6 ng of the PDE protein (depending on the enzyme activity) in a final volume of 0.1 mL.
Reactions were initiated by addition of enzyme, incubated for 20 minutes at 30° C. and then terminated by the addition of 50 μl of SPA beads containing Zn^2+.
The mixture was shaken, and allowed to settle for 3 hours. Then the production of [^3H]-AMP or [^3H]-GMP from the substrate was quantitated by scintillation counting in a Wallac® plate counter. […]

Monoamine Oxidase MAO-B = Monoamine Oxidase MAO-B (Homo sapiens (Human), UniProt P27338); experiment: Monoamine Oxidase MAO-B enzyme assay; format: biochemical
Monoamine Oxidase MAO-B, sequence (P27338 whole entry, looked up): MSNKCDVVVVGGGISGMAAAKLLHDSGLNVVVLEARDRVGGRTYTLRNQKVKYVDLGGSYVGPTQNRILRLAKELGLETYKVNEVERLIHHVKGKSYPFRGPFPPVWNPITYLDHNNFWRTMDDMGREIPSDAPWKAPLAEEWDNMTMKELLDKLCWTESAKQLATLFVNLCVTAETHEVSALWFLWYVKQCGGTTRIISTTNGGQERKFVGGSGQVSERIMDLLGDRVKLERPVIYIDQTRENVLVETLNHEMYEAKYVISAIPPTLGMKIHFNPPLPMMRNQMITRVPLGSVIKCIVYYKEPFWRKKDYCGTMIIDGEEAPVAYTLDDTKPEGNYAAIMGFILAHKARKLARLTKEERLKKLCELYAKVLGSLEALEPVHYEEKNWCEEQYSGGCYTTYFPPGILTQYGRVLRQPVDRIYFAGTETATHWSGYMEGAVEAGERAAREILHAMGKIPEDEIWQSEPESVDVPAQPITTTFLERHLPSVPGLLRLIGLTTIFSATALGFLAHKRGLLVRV

N[C@@H](Cc1ccc(O)c(O)c1)C(=O)O [L-dopa, levodopa, reference compound]
Letter Designation (statistical group of stride length) (MPTP-treated mice; 1 mg/kg L-DOPA): B | Letter Designation (statistical group of stride length) (MPTP-treated mice; 5 mg/kg L-DOPA): A | Stride length (cm) MEAN ± SEM (MPTP-treated mice; 1 mg/kg L-DOPA): 5.78 ± 0.09 cm | Stride length (cm) MEAN ± SEM (MPTP-treated mice; 5 mg/kg L-DOPA): 7.29 ± 0.07 cm | effect on stride length, in words (MPTP-treated mice; MPTP-treated mice, 1 mg/kg L-dopa): did not result in a significant increase in stride length | effect on stride length, in words (MPTP-treated mice; MPTP-treated mice, 5 mg/kg L-dopa): returned stride length to control (unlesioned) values

COc1cc(N)ccc1-c1cc2c(c(=O)[nH]1)C(C1CCCCC1)N=[N+]2C (centres unmarked) [OM69]
percent inhibition of ligand binding to Dopamine D4.2 (Dopamine D4.2 receptor): −16.0% | percent inhibition of ligand binding to Dopamine D3 (Dopamine D3 receptor): −13.0% | percent inhibition of ligand binding, Gabapentin (gabapentin receptor): 15.0% | percent inhibition of ligand binding to Dopamine D1 (Dopamine D1 receptor): −5.0% | Letter Designation (statistical group of stride length) (MPTP-treated mice; 0.01 mg/kg OM69): B | Letter Designation (statistical group of stride length) (MPTP-treated mice; 0.03 mg/kg OM69): B | Letter Designation (statistical group of stride length) (MPTP-treated mice; 0.05 mg/kg OM69): C | Letter Designation (statistical group of stride length) (MPTP-treated mice; 0.07 mg/kg OM69): C | Letter Designation (statistical group of stride length) (MPTP-treated mice; 0.1 mg/kg OM69): A | Stride length (cm) MEAN ± SEM (MPTP-treated mice; 0.01 mg/kg OM69 IP): 5.77 ± 0.17 cm | Stride length (cm) MEAN ± SEM (MPTP-treated mice; 0.03 mg/kg OM69 IP): 5.93 ± 0.14 cm | Stride length (cm) MEAN ± SEM (MPTP-treated mice; 0.05 mg/kg OM69 IP): 6.38 ± 0.14 cm | Stride length (cm) MEAN ± SEM (MPTP-treated mice; 0.07 mg/kg OM69 IP): 6.65 ± 0.18 cm | Stride length (cm) MEAN ± SEM (MPTP-treated mice; 0.1 mg/kg OM69 IP): 7.23 ± 0.07 cm | potency relative to L-dopa in restoring stride length (MPTP-treated mice; MPTP-treated mice): approximately 50 fold | effect on stride length, in words (MPTP-treated mice; MPTP-treated mice, 0.1 mg/kg OM69): returned stride length to control (unlesioned) values | dose dependence of the effect on stride length, in words (MPTP-treated mice; MPTP-treated mice, FIG. 18): increases stride length in MPTP-treated mice in a dose-dependent manner | effect on stride length, in words (MPTP-treated mice; MPTP-treated mice, intermediate doses of OM69): statistically significant (p<0.05) increase in stride length | effect on stride length, in words (MPTP-treated mice; MPTP-treated mice, low doses of OM69 (0.01 mg/kg or 0.03 mg/kg)): did not increase stride length | Fold Selectivity for PDE7A versus PDE1B (PDE1B): 29,608 fold | percent inhibition of MAO-B enzymatic activity (Monoamine Oxidase MAO-B; Exp #1, 10.0 μM): 49.0% | percent inhibition of MAO-B enzymatic activity (Monoamine Oxidase MAO-B; Exp #2, 1.0 μM): 27% | percent inhibition of MAO-B enzymatic activity (Monoamine Oxidase MAO-B; Exp #2, 10.0 μM): 67.0% | IC50 (Monoamine Oxidase MAO-B; estimated from 27% inhibition at 1 μM, read-out: MAO-B IC50 indicated by the percentage inhibition): ~2.7 µM | inhibition of MAO-B at brain concentration (Monoamine Oxidase MAO-B; if present in the brain at 17 nM): less than 0.7%

O=C1Nc2c(Cl)ccc(OCCO)c2C2(CCCCC2)N1 [OM955]
Fold Selectivity for PDE7A versus PDE1B (PDE1B): 342 fold

Reference: patent US8637528B2, “Use of PDE7 inhibitors for the treatment of movement disorders” (Omeros Corporation, priority 2007, dated 2014)
